Data as given in patent US5955440A, “Macrolide LHRH antagonists” (Abbott Laboratories, priority 1998, dated 1999).

Tests used:
[1] = target: T1, LHRH rat pituitary receptor (Rattus norvegicus, UniProt P30969); assay: LHRH rat pituitary receptor binding (pKI); details: negative logarithm of the equilibrium dissociation constants; for receptor binding affinity (pKI): Table 1; for Ki: Table 1, read-out: receptor binding affinity (pKI) (converted)
T1 construct: from tissue; host or cells: rat pituitary
T1 sequence (P30969 1-327): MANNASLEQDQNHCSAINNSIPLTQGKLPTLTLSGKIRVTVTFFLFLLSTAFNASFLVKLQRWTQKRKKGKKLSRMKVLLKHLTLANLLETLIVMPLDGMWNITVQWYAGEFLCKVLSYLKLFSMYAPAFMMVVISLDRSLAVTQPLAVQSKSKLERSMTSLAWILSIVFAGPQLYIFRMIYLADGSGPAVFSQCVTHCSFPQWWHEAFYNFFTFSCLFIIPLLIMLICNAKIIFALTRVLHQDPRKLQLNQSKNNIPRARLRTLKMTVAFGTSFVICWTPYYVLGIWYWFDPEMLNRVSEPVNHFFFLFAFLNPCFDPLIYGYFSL
Description: (§1) Representative compounds of the present invention were evaluated in in vitro tests for LHRH rat pituitary receptor binding (pKI) and for LH inhibition from rat pituitary cells for antagonist potency (pA2). The tests employed the methods detailed in F. Haviv, et al. J. Med. Chem., 32: 2340-2344 (1989). The receptor binding affinity (pKI) is the negative logarithm of the equilibrium dissociation constants.

[2] = target: T2, rat pituitary cells (Rattus norvegicus, UniProt P30969); assay: LH inhibition from rat pituitary cells, antagonist potency (pA2); format: cell-based; details: negative log of antagonist concentration shifting the leuprolide response curve to two-fold higher concentration, Table 2
T2 construct: endogenous in cells; host or cells: rat pituitary cells
T2 sequence (P30969 1-327): T1 sequence (P30969 1-327)
Description: as §1
The pA2 value is the negative logarithm of the concentration of antagonist which shifts the response curve produced by the agonist leuprolide to two-fold higher concentration. Leuprolide is the LHRH agonist having the structure pyro-Glu^1 -His^2 -Trp^3 -Ser^4 -Tyr^5 -D-Leu^6 -Leu^7 -Arg^8 -Pro^9 -NHEt and is disclosed and claimed in U.S. Pat. No. 4,005,063. Typically pA2 values of 7.0 or greater are indicative of good LHRH antagonist potency.

In the case of `CC[C@H]1OC(=O)[C@H](C)[C@@H](O[C@H]2C[C@@](C)(OC)[C@@H](O)[C@H](C)O2)[C@H](C)[C@@H](O[C@@H]2O[C@H](C)C[C@H](N(C)C3CCC3)[C@H]2O)[C@](C)(OC)C[C@@H](C)C(=O)[C@H](C)[C@H]2N(CCc3ccc(Cl)cc3)C(=O)O[C@]12C` [Example 20], the “receptor binding affinity (pKI)” value [1] is reported as 8.49 and the pA2 [2] is reported as 7.53.

A Ki [1] of 9.12 nM was found for `CCNC(=S)N(C)[C@H]1C[C@@H](C)O[C@@H](O[C@@H]2[C@@H](C)[C@H](O[C@H]3C[C@@](C)(OC)[C@@H](O)[C@H](C)O3)[C@@H](C)C(=O)O[C@H](CC)[C@@]3(C)OC(=O)N(CCc4ccc(Cl)c(Cl)c4)[C@@H]3[C@@H](C)C(=O)[C@H](C)C[C@@]2(C)OC)[C@@H]1O` [Example 57, 3'-N-Desmethyl-3'-N-ethylthiourea-11-deoxy-11-[carboxy-(3,4-dichlorophenethylamino)]-6-O-methyl-erythromycin A 11,12-(cyclic carbamate)] in this work.

With `CC[C@H]1OC(=O)[C@H](C)[C@@H](O[C@H]2C[C@@](C)(OC)[C@@H](O)[C@H](C)O2)[C@H](C)[C@@H](O[C@@H]2O[C@H](C)C[C@H](N(C)CCC3CC3)[C@H]2O)[C@](C)(OC)C[C@@H](C)C(=O)[C@H](C)[C@H]2N(CCc3ccc(Cl)cc3)C(=O)O[C@]12C` [Example 38, 3'-N-Desmethyl-3'-N-[2-(cyclopropyl)-ethyl]-11-deoxy-11-[carboxy-(4-chlorophenethylamino)]-6-O-methyl-erythromycin A 11,12-(cyclic carbamate)] the “receptor binding affinity (pKI)” value [1] was 8.17.

A Ki [1] of 3.72 nM was found for `CC[C@H]1OC(=O)[C@H](C)[C@@H](O[C@H]2C[C@@](C)(OC)[C@@H](O)[C@H](C)O2)[C@H](C)[C@@H](O[C@@H]2O[C@H](C)C[C@H](N(C)CC3CC3)[C@H]2O)[C@](C)(OC)C[C@@H](C)C(=O)[C@H](C)[C@H]2N(CC3(c4ccc(Cl)c(Cl)c4)CC3)C(=O)O[C@]12C` [Example 59, 3'-N-Desmethyl-3'-N-cyclopropylmethyl-11-deoxy-11-[carboxy-(α,α-cyclopropyl-3,4-dichlorophenethylamino)]-6-O-methyl-erythromycin A 11,12-(cyclic carbamate)] in this work.

A Ki [1] of 6.92 nM was found for `CC[C@H]1OC(=O)[C@H](C)[C@@H](O[C@H]2C[C@@](C)(OC)[C@@H](O)[C@H](C)O2)[C@H](C)[C@@H](O[C@@H]2O[C@H](C)C[C@H](N(C)Cc3cccnc3)[C@H]2O)[C@](C)(OC)C[C@@H](C)C(=O)[C@H](C)[C@H]2N(CCc3ccc(Cl)c(Cl)c3)C(=O)O[C@]12C` [Example 64, 3'-N-Desmethyl-3'-N-(3-pyridyl)methyl-11-deoxy-11-[carboxy-(3,4-dichlorophenethylamino)]-6-O-methyl-erythromycin A 11,12-(cyclic carbamate)] in this work.

A Ki [1] of 0.214 nM was found for `CC[C@H]1OC(=O)[C@H](C)[C@@H](O[C@H]2C[C@@](C)(OC)[C@@H](O)[C@H](C)O2)[C@H](C)[C@@H](O[C@@H]2O[C@H](C)C[C@H](N(C)Cc3ccc(C)c4ccccc34)[C@H]2O)[C@](C)(OC)C[C@@H](C)C(=O)[C@H](C)[C@H]2N(CCc3ccc(Cl)c(Cl)c3)C(=O)O[C@]12C` [Example 73, 3'-N-Desmethyl-3'-N-(4-methyl-1-napthylmethyl)-11-deoxy-11-[carboxy-(3,4-dichlorophenethylamino)]-6-O-methyl-erythromycin A 11,12-(cyclic carbamate)] in this work.

A Ki [1] of 9.12 nM was found for `CCC(CC)N(C)[C@H]1C[C@@H](C)O[C@@H](O[C@@H]2[C@@H](C)[C@H](O[C@H]3C[C@@](C)(OC)[C@@H](O)[C@H](C)O3)[C@@H](C)C(=O)O[C@H](CC)[C@@]3(C)OC(=O)N(CCc4ccc(Cl)cc4)[C@@H]3[C@@H](C)C(=O)[C@H](C)C[C@@]2(C)OC)[C@@H]1O` [Example 36, 3'-N-Desmethyl-3'-N-(3-pentyl)-11-deoxy-11-[carboxy-(4-chlorophenethylamino)]-6-O-methyl-erythromycin A 11,12-(cyclic carbamate)] in this work.

A Ki [1] of 5.75 nM was found for `CC[C@H]1OC(=O)[C@H](C)[C@@H](O[C@H]2C[C@@](C)(OC)[C@@H](O)[C@H](C)O2)[C@H](C)[C@@H](O[C@@H]2O[C@H](C)C[C@H](N(C)C3CCCC3)[C@H]2O)[C@](C)(OC)C[C@@H](C)C(=O)[C@H](C)[C@H]2N(CCc3ccc(OC)cc3)C(=O)O[C@]12C` [Example 40, 3'-N-Desmethyl-3'-N-cyclopentyl-11-deoxy-11-[carboxy-(4-methoxyphenethylamino)]-6-O-methyl-erythromycin A 11,12-(cyclic carbamate)] in this work.

A Ki [1] of 9.55 nM was found for `CC[C@H]1OC(=O)[C@H](C)[C@@H](O[C@H]2C[C@@](C)(OC)[C@@H](O)[C@H](C)O2)[C@H](C)[C@@H](O[C@@H]2O[C@H](C)C[C@H](N(C)Cc3ccc(O)cc3)[C@H]2O)[C@](C)(OC)C[C@@H](C)C(=O)[C@H](C)[C@H]2N(CCc3ccc(Cl)c(Cl)c3)C(=O)O[C@]12C` [Example 91, 3'-N-Desmethyl-3'-N-(4-hydroxybenzyl)-11-deoxy-11-[carboxy-(3,4-dichlorophenethylamino)]-6-O-methyl-erythromycin A 11,12-(cyclic carbamate)] in this work.

A Ki [1] of 4.68 nM was found for `CC[C@H]1OC(=O)[C@H](C)[C@@H](O[C@H]2C[C@@](C)(OC)[C@@H](O)[C@H](C)O2)[C@H](C)[C@@H](O[C@@H]2O[C@H](C)C[C@H](N(C)CCCSC)[C@H]2O)[C@](C)(OC)C[C@@H](C)C(=O)[C@H](C)[C@H]2N(CCc3ccc(Cl)c(Cl)c3)C(=O)O[C@]12C` [Example 7, 3'-N-Desmethyl-3'-N-(3-methylthiopropyl)-11-deoxy-11-[carboxy-(3,4-dichlorophenethylamino)]-6-O-methyl-erythromycin A 11,12-(cyclic carbamate)] in this work.

A Ki [1] of 2.69 nM was found for `CC[C@H]1OC(=O)[C@H](C)[C@@H](O[C@H]2C[C@@](C)(OC)[C@@H](O)[C@H](C)O2)[C@H](C)[C@@H](O[C@@H]2O[C@H](C)C[C@H](N(C)C3CCCC3)[C@H]2O)[C@](C)(OC)C[C@@H](C)C(=O)[C@H](C)[C@H]2N(CCNc3ccc(Cl)cc3)C(=O)O[C@]12C` [Example 61] in this work.

A Ki [1] of 7.94 nM was found for `CC[C@H]1OC(=O)[C@H](C)[C@@H](O[C@H]2C[C@@](C)(OC)[C@@H](O)[C@H](C)O2)[C@H](C)[C@@H](O[C@@H]2O[C@H](C)C[C@H](N(C)C3CCCCC3)[C@H]2O)[C@](C)(OC)C[C@@H](C)C(=O)[C@H](C)[C@H]2N(CC3(c4ccc(Cl)c(Cl)c4)CC3)C(=O)O[C@]12C` [Example 13, 3'-N-Desmethyl-3'-N-cyclohexyl-11-deoxy-11-[carboxy-(α,α-cyclopropyl-3,4-dichlorophenethylamino)]-6-O-methyl-erythromycin A 11,12-(cyclic carbamate)] in this work.

A Ki [1] of 6.17 nM was found for `CC[C@H]1OC(=O)[C@H](C)[C@@H](O[C@H]2C[C@@](C)(OC)[C@@H](O)[C@H](C)O2)[C@H](C)[C@@H](O[C@@H]2O[C@H](C)C[C@H](N(C)CCCc3ccccn3)[C@H]2O)[C@](C)(OC)C[C@@H](C)C(=O)[C@H](C)[C@H]2N(CCc3ccc(Cl)c(Cl)c3)C(=O)O[C@]12C` [Example 77, 3'-N-Desmethyl-3'-N-[3-(2-pyridyl)propyl]-11-deoxy-11-[carboxy-(3,4-dichlorophenethylamino)]-6-O-methyl-erythromycin A 11,12-(cyclic carbamate)] in this work.

A Ki [1] of 7.08 nM was found for `CC[C@H]1OC(=O)[C@H](C)[C@@H](O[C@H]2C[C@@](C)(OC)[C@@H](O)[C@H](C)O2)[C@H](C)[C@@H](O[C@@H]2O[C@H](C)C[C@H](N(C)CCCCc3cccc(C)n3)[C@H]2O)[C@](C)(OC)C[C@@H](C)C(=O)[C@H](C)[C@H]2N(CCc3ccc(F)c(Cl)c3)C(=O)O[C@]12C` [Example 84, 3'-N-Desmethyl-3'-N-[4-(6-methyl)-2-pyridyl]butyl-11-deoxy-11-[carboxy-(3-chloro-4-fluorophenethylamino)]-6-O-methyl-erythromycin A 11,12-(cyclic carbamate)] in this work.

A Ki [1] of 7.41 nM was found for `CC[C@H]1OC(=O)[C@H](C)[C@@H](O[C@H]2C[C@@](C)(OC)[C@@H](O)[C@H](C)O2)[C@H](C)[C@@H](O[C@@H]2O[C@H](C)C[C@H](N(C)C3CCSC3)[C@H]2O)[C@](C)(OC)C[C@@H](C)C(=O)[C@H](C)[C@H]2N(CCc3ccc(Cl)c(Cl)c3)C(=O)O[C@]12C` (some centres unmarked) [Example 8, 3'-N-Desmethyl-3'-N-(3-tetrahydrothienyl)-11-deoxy-11-[carboxy-(3,4-dichlorophenethylamino)]-6-O-methyl-erythromycin A 11,12-(cyclic carbamate)] in this work.

A Ki [1] of 3.09 nM was found for `CC[C@H]1OC(=O)[C@H](C)[C@@H](O[C@H]2C[C@@](C)(OC)[C@@H](O)[C@H](C)O2)[C@H](C)[C@@H](O[C@@H]2O[C@H](C)C[C@H](N(C)C3CCC3)[C@H]2O)[C@](C)(OC)C[C@@H](C)C(=O)[C@H](C)[C@H]2N(CC3(c4ccc(Cl)c(Cl)c4)CC3)C(=O)O[C@]12C` [Example 11, 3'-N-Desmethyl-3'-N-cyclobutyl-11-deoxy-11-[carboxy-(α,α-cyclopropyl-3,4-dichlorophenethylamino)]-6-O-methyl-erythromycin A 11,12-(cyclic carbamate)] in this work.
